PubChem BioAssay (NCI)
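GI50 marks 50% less growth. Definition used: TGI = concentration required for complete inhibition of growth.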

What was measured:
Assay in all cases: NCI anticancer screen, dose series, 384-well format
[1] = tested on: 786-0 renal
[2] = tested on: A498 renal
[3] = tested on: A549 NSCLC
[4] = tested on: ACHN renal
[5] = tested on: BT-549 breast
[6] = tested on: CAKI-1 renal
[7] = tested on: CCRF-CEM leukemia
[8] = tested on: COLO 205 colon
[9] = tested on: DU-145 prostate
[10] = tested on: EKVX NSCLC
[11] = tested on: HCC-2998 colon
[12] = tested on: HCT-116 colon
[13] = tested on: HCT-15 colon
[14] = tested on: HOP-62 NSCLC
[15] = tested on: HOP-92 NSCLC
[16] = tested on: HS 578T breast
[17] = tested on: HT29 colon
[18] = tested on: IGROV1 ovarian
[19] = tested on: K-562 leukemia
[20] = tested on: KM12 colon
[21] = tested on: LOX IMVI melanoma
[22] = tested on: M14 melanoma
[23] = tested on: MALME-3M melanoma
[24] = tested on: MCF7 breast
[25] = tested on: MDA-MB-231 breast
[26] = tested on: MDA-MB-435 melanoma
[27] = tested on: MDA-MB-468 breast
[28] = tested on: MOLT-4 leukemia
[29] = tested on: NCI-H226 lung
[30] = tested on: NCI-H23 lung
[31] = tested on: NCI-H322M lung
[32] = tested on: NCI-H460 NSCLC
[33] = tested on: NCI-H522 lung
[34] = tested on: NCI/ADR-RES ovarian
[35] = tested on: OVCAR-3 ovarian
[36] = tested on: OVCAR-4 ovarian
[37] = tested on: OVCAR-8 ovarian
[38] = tested on: PC-3 prostate
[39] = tested on: RXF 393 renal
[40] = tested on: SF-268 CNS
[41] = tested on: SF-295 CNS
[42] = tested on: SF-539 CNS
[43] = tested on: SK-MEL-28 melanoma
[44] = tested on: SK-MEL-5 melanoma
[45] = tested on: SK-OV-3 ovarian
[46] = tested on: SN12C renal
[47] = tested on: SNB-75 CNS
[48] = tested on: SW-620 colon
[49] = tested on: T-47D breast
[50] = tested on: TK-10 renal
[51] = tested on: U251 glioblastoma
[52] = tested on: UACC-257 melanoma
[53] = tested on: UACC-62 melanoma
[54] = tested on: UO-31 renal

Cc1cc(C(=O)NOCCO)c(Nc2ccc(I)cc2F)n(C)c1=O
GI50 [1]: 0.0446 µM | TGI [1]: > 100 µM | GI50 [2]: 35.7 µM | TGI [2]: > 100 µM | GI50 [3]: 0.0118 µM | TGI [3]: 74.2 µM | GI50 [4]: 22.2 µM | TGI [4]: > 100 µM | GI50 [5]: 20.4 µM | TGI [5]: > 100 µM | GI50 [6]: 0.012 µM | TGI [6]: > 100 µM | GI50 [7]: > 100 µM | TGI [7]: > 100 µM | GI50 [8]: < 0.01 µM | TGI [8]: 0.0132 µM | GI50 [9]: 4.72 µM | TGI [9]: > 100 µM | GI50 [10]: 0.0243 µM | TGI [10]: > 100 µM | GI50 [11]: < 0.01 µM | TGI [11]: < 0.01 µM | GI50 [12]: < 0.01 µM | TGI [12]: 0.121 µM | GI50 [13]: 0.145 µM | TGI [13]: > 100 µM | GI50 [14]: < 0.01 µM | TGI [14]: > 100 µM | GI50 [15]: 0.0157 µM | TGI [15]: 0.125 µM | GI50 [16]: 0.0264 µM | TGI [16]: > 100 µM | GI50 [17]: < 0.01 µM | TGI [17]: > 100 µM | GI50 [18]: < 0.01 µM | TGI [18]: > 100 µM | GI50 [19]: 0.0114 µM | TGI [19]: > 100 µM | GI50 [20]: < 0.01 µM | TGI [20]: > 100 µM | GI50 [21]: < 0.01 µM | TGI [21]: 0.116 µM | GI50 [22]: < 0.01 µM | TGI [22]: < 0.01 µM | GI50 [23]: < 0.01 µM | TGI [23]: < 0.01 µM | GI50 [24]: > 100 µM | TGI [24]: > 100 µM | GI50 [25]: < 0.01 µM | TGI [25]: 0.138 µM | GI50 [26]: < 0.01 µM | TGI [26]: > 100 µM | GI50 [27]: 49.7 µM | TGI [27]: > 100 µM | GI50 [28]: > 100 µM | TGI [28]: > 100 µM | GI50 [29]: 0.0389 µM | TGI [29]: 94.4 µM | GI50 [30]: < 0.01 µM | TGI [30]: 0.0435 µM | GI50 [31]: < 0.01 µM | TGI [31]: > 100 µM | GI50 [32]: < 0.01 µM | TGI [32]: > 100 µM | GI50 [33]: 33.2 µM | TGI [33]: > 100 µM | GI50 [34]: > 100 µM | TGI [34]: > 100 µM | GI50 [35]: 62.9 µM | TGI [35]: > 100 µM | GI50 [36]: > 100 µM | TGI [36]: > 100 µM | GI50 [37]: 32 µM | TGI [37]: > 100 µM | GI50 [38]: > 100 µM | TGI [38]: > 100 µM | GI50 [39]: 0.0582 µM | TGI [39]: > 100 µM | GI50 [40]: > 100 µM | TGI [40]: > 100 µM | GI50 [41]: 65.7 µM | TGI [41]: > 100 µM | GI50 [42]: 0.052 µM | TGI [42]: > 100 µM | GI50 [43]: < 0.01 µM | TGI [43]: < 0.01 µM | GI50 [44]: < 0.01 µM | TGI [44]: > 100 µM | GI50 [45]: > 100 µM | TGI [45]: > 100 µM | GI50 [46]: < 0.01 µM | TGI [46]: 48.7 µM | GI50 [47]: 0.18 µM | TGI [47]: > 100 µM | GI50 [48]: < 0.01 µM | TGI [48]: > 100 µM | GI50 [49]: > 100 µM | TGI [49]: > 100 µM | GI50 [50]: 0.0521 µM | TGI [50]: > 100 µM | GI50 [51]: 0.0391 µM | TGI [51]: > 100 µM | GI50 [52]: < 0.01 µM | TGI [52]: < 0.01 µM | GI50 [53]: < 0.01 µM | TGI [53]: < 0.01 µM | GI50 [54]: 0.0404 µM | TGI [54]: > 100 µM
